Results taken from ChEMBL document CHEMBL1201862, “PubChem BioAssay data set” (2004).
Counter-ions that a name gives are not always drawn.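 Test compounds were applied to cells in 96-well plates for 48 hours at 5 doses. GI50 is the concentration that inhibits growth by half.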 Active and inactive are the calls of the source. Rule as the data show it: active = GI50 up to about 1.1 µM and inactive = higher.

Assays:
Assay in all cases: DTP human tumour cell line panel, 48 h
ACHN = tested on: ACHN
CAKI-1 = tested on: CAKI-1
HCC 2998 = tested on: HCC 2998
HCT-116 = tested on: HCT-116
HL-60 = tested on: HL-60
HOP-92 = tested on: HOP-92
K562 = tested on: K562
MCF7 = tested on: MCF7
MOLT-4 = tested on: MOLT-4
NCI-H226 = tested on: NCI-H226
OVCAR-4 = tested on: OVCAR-4
RXF 393 = tested on: RXF 393
SF-295 = tested on: SF-295
SF-539 = tested on: SF-539
SK-MEL-28 = tested on: SK-MEL-28
SK-MEL-2 = tested on: SK-MEL-2
SK-MEL-5 = tested on: SK-MEL-5
SN12C = tested on: SN12C
SNB-75 = tested on: SNB-75
UO-31 = tested on: UO-31

Compound | GI50 (ACHN) | GI50 (CAKI-1) | GI50 (HCC 2998) | GI50 (HCT-116) | GI50 (HL-60) | GI50 (HOP-92) | GI50 (K562) | GI50 (MCF7) | GI50 (MOLT-4) | GI50 (NCI-H226) | GI50 (OVCAR-4) | GI50 (RXF 393) | GI50 (SF-295) | GI50 (SF-539) | GI50 (SK-MEL-28) | GI50 (SK-MEL-2) | GI50 (SK-MEL-5) | GI50 (SN12C) | GI50 (SNB-75) | GI50 (UO-31)
CN(C)c1cccc(/C=C(\C#N)c2ccccc2)c1 | 14.4 µM (inactive) | 0.771 µM (active) | 0.565 µM (active) | 0.396 µM (active) | 0.0865 µM (active) | 2.94 µM (inactive) | 0.0927 µM (active) | 0.218 µM (active) | 0.493 µM (active) | 2.55 µM (inactive) | 17.1 µM (inactive) | 0.706 µM (active) | 0.574 µM (active) | 0.587 µM (active) | 7.33 µM (inactive) | 0.316 µM (active) | 0.371 µM (active) | 1.15 µM (inactive) | 1.39 µM (inactive) | 5.46 µM (inactive)
CN(C)N1C(=O)S/C(=C\c2ccc([N+](=O)[O-])cc2)C1=O | > 100 µM (inactive) | > 100 µM (inactive) | > 100 µM (inactive) | > 100 µM (inactive) | 34 µM (inactive) | > 100 µM (inactive) | – | > 100 µM (inactive) | > 100 µM (inactive) | > 100 µM (inactive) | > 100 µM (inactive) | > 100 µM (inactive) | > 100 µM (inactive) | > 100 µM (inactive) | > 100 µM (inactive) | > 100 µM (inactive) | > 100 µM (inactive) | > 100 µM (inactive) | 0.0458 µM (active) | –
CCC1(O)CC(O)c2c(O)c3c(c(O)c2C1C(=O)OC)C(=O)c1cccc(O)c1C3=O (configuration not stated) | 3 µM (inactive) | 3.43 µM (inactive) | 4.43 µM (inactive) | 2.89 µM (inactive) | 0.794 µM (active) | 9.31 µM (inactive) | 1.96 µM (inactive) | 3.28 µM (inactive) | 0.415 µM (active) | 3.4 µM (inactive) | 2.96 µM (inactive) | 7.67 µM (inactive) | 2.66 µM (inactive) | 3.85 µM (inactive) | 11.4 µM (inactive) | 3.12 µM (inactive) | 1.84 µM (inactive) | 2.92 µM (inactive) | 6.31 µM (inactive) | 3.18 µM (inactive)
CNC(=S)N/N=C(\C)c1nc2cccnc2[nH]1 | 38.9 µM (inactive) | 33.8 µM (inactive) | 19.1 µM (inactive) | 30 µM (inactive) | 17.6 µM (inactive) | 20.6 µM (inactive) | 95.3 µM (inactive) | 34.3 µM (inactive) | 31.9 µM (inactive) | 38.1 µM (inactive) | 4.12 µM (inactive) | 62.2 µM (inactive) | 30.3 µM (inactive) | 27.7 µM (inactive) | 82.6 µM (inactive) | > 63.5 µM (inactive) | 29.2 µM (inactive) | 98.2 µM (inactive) | > 70.6 µM (inactive) | 9.25 µM (inactive)
CS(=O)(=O)OCCCNCCCOS(C)(=O)=O | 392 µM (inactive) | 650 µM (inactive) | 1280 µM (inactive) | 1440 µM (inactive) | 201 µM (inactive) | 957 µM (inactive) | 1580 µM (inactive) | 679 µM (inactive) | 189 µM (inactive) | 1680 µM (inactive) | 2130 µM (inactive) | 1610 µM (inactive) | 526 µM (inactive) | 1270 µM (inactive) | 2440 µM (inactive) | 1940 µM (inactive) | 1550 µM (inactive) | 533 µM (inactive) | 1580 µM (inactive) | 1990 µM (inactive)
OC[P+](CO)(CO)C12CC3CC(CC(C3)C1)C2 | > 100 µM (inactive) | > 100 µM (inactive) | > 100 µM (inactive) | > 87.3 µM (inactive) | 10.3 µM (inactive) | > 86.9 µM (inactive) | 24.5 µM (inactive) | > 100 µM (inactive) | 26.4 µM (inactive) | > 100 µM (inactive) | > 48.3 µM (inactive) | > 63.2 µM (inactive) | > 30.1 µM (inactive) | > 100 µM (inactive) | > 100 µM (inactive) | > 100 µM (inactive) | > 100 µM (inactive) | > 100 µM (inactive) | > 64.4 µM (inactive) | > 78.3 µM (inactive)
COc1ccc2c(c1)Cc1c(NCCN(C)C)ccc(C(=O)NCCCN(C)CCCNC(=O)c3ccc(NCCN(C)C)c4c3Nc3ccc(OC)cc3C4)c1N2 | 0.0343 µM (active) | 0.753 µM (active) | < 0.01 µM (active) | < 0.01 µM (active) | 0.0358 µM (active) | 0.143 µM (active) | < 0.011 µM (active) | < 0.01 µM (active) | < 0.01 µM (active) | < 0.0254 µM (active) | < 0.0184 µM (active) | 0.154 µM (active) | 0.0213 µM (active) | 0.209 µM (active) | 0.142 µM (active) | < 0.01 µM (active) | 0.0299 µM (active) | < 0.01 µM (active) | < 0.01 µM (active) | 0.362 µM (active)
CC1(C)CC(=O)c2c(nc3c4c([nH]c(-c5ccc([N+](=O)[O-])cc5)c24)CC(C)(C)C3)C1 | 28 µM (inactive) | 44.1 µM (inactive) | 27.5 µM (inactive) | 41.1 µM (inactive) | 15.6 µM (inactive) | 19.9 µM (inactive) | 20.1 µM (inactive) | 27.7 µM (inactive) | 4.14 µM (inactive) | 43.8 µM (inactive) | 34 µM (inactive) | 25.8 µM (inactive) | 30 µM (inactive) | 65.3 µM (inactive) | 60.8 µM (inactive) | 35.2 µM (inactive) | 26.2 µM (inactive) | 53.3 µM (inactive) | 24.8 µM (inactive) | 29.6 µM (inactive)
Cn1c(=O)c2nc3c(=O)n(C)c(=O)n(CC(N)=O)c3nc2n(C)c1=O | > 100 µM (inactive) | > 100 µM (inactive) | > 100 µM (inactive) | > 100 µM (inactive) | > 100 µM (inactive) | > 100 µM (inactive) | > 100 µM (inactive) | > 100 µM (inactive) | – | > 100 µM (inactive) | > 100 µM (inactive) | > 100 µM (inactive) | > 100 µM (inactive) | > 100 µM (inactive) | > 100 µM (inactive) | > 100 µM (inactive) | > 100 µM (inactive) | > 100 µM (inactive) | > 100 µM (inactive) | > 100 µM (inactive)
CCCCOC(=O)CC(CC(=O)OCCCC)(OC(C)=O)C(=O)OCCCC [ACETYLTRIBUTYL CITRATE] | > 200 µM (inactive) | > 200 µM (inactive) | > 200 µM (inactive) | 56.4 µM (inactive) | 27.8 µM (inactive) | 72.4 µM (inactive) | 29.6 µM (inactive) | 39.1 µM (inactive) | 17.2 µM (inactive) | 24.6 µM (inactive) | > 81.5 µM (inactive) | 1.1 µM (active) | 91.2 µM (inactive) | > 100 µM (inactive) | > 157 µM (inactive) | > 200 µM (inactive) | 16.1 µM (inactive) | > 164 µM (inactive) | 8.49 µM (inactive) | 39.6 µM (inactive)
